In patent US12193328B2, “Aromatic compounds and use thereof for formation of molecular layers and fabrication of switching elements for memristive devices” (MERCK PATENT GMBH, priority 2019, dated 2025):
Read-outs that look alike come from different tables or passages of the source.

Test: Comparative solubility test in various solvents
Type: physicochemical
Conditions: 1 mM concentration, 23° C., stirred 18 h, visually inspected; for solubility at 18 h: organic solvent or mixture, thermodynamic from solid
Protocol: Comparative Solubility Test
The comparative solubilities of the following Reference Compound 1 (reference from DE102017005884):
[drawing 83] and of Synthesis Example 1 in various solvents at 1 mM concentration at 23° C. are experimentally determined. The sample is stirred for 18 h at 23° C. and then visually inspected. In the table below the expression “soluble” means that after 18 h a clear solution is obtained. “Not soluble” means that remaining solid is observed.

[1] = 1-Methoxy-2-propanol acetate, read-out: Solubility in 1-methoxy-2-propanol acetate
[2] = Cyclohexanone, read-out: Solubility in cyclohexanone

| SMILES | Solubility in chloroform | Solubility in THF | Solubility in toluene (Toluene) | solubility at 18 h [1] [µM] | solubility at 18 h [2] [µM] | solubility at 18 h (Ethyl acetate, read-out: Solubility in ethyl acetate) [µM] | Solubility in 1-methoxy-2-propanol acetate (1-Methoxy-2-propanol acetate) | Solubility in cyclohexanone (Cyclohexanone) | Solubility in ethyl acetate (Ethyl acetate) | solubility at 18 h (Toluene, read-out: Solubility in toluene) [µM] |
| --- | --- | --- | --- | --- | --- | --- | --- | --- | --- | --- |
| CCCCCC1CCC(c2ccc(OCCCCCCCCCCCP(=O)(O)O)c(F)c2F)CC1 (centres unmarked) [Reference 1, 11-[2,3-difluoro-4-(4-pentylcyclohexyl)phenoxy]undecylphosphonic acid, reference compound] | Soluble | Soluble | Soluble | < 1000 | < 1000 | < 1000 |  |  |  |  |
| CCCCC[C@H]1CC[C@H](c2ccc(Oc3c(C)cc(P(=O)(O)O)cc3C)c(F)c2F)CC1 [Synthesis Example 1, [4-[2,3-difluoro-4-(4-pentylcyclohexyl)phenoxy]-3,5-dimethyl-phenyl]phosphonic acid] | Soluble | Soluble |  | > 1000 | > 1000 |  | Soluble | Soluble | Soluble | < 1000 |
